Data taken from ChEMBL document CHEMBL4118111, “Discovery and optimization of piperazine-1-thiourea-based human phosphoglycerate dehydrogenase inhibitors” (Bioorg Med Chem, 2018).

What was measured:
[1] = molecular target: T1, D-3-phosphoglycerate dehydrogenase (Homo sapiens) (UniProt O43175); experiment: Inhibition of N-terminal His6-tagged human liver PHGDH expressed in Escherichia coli Rosetta (DE3)pLysS at 57 uM using 3-phosphoglycerate as substrate after 20 mins in presence of NAD+ by resazurin fluorescence based PSAT1/diaphorase/PSPH coupled enzyme assay
T1 sequence (whole entry): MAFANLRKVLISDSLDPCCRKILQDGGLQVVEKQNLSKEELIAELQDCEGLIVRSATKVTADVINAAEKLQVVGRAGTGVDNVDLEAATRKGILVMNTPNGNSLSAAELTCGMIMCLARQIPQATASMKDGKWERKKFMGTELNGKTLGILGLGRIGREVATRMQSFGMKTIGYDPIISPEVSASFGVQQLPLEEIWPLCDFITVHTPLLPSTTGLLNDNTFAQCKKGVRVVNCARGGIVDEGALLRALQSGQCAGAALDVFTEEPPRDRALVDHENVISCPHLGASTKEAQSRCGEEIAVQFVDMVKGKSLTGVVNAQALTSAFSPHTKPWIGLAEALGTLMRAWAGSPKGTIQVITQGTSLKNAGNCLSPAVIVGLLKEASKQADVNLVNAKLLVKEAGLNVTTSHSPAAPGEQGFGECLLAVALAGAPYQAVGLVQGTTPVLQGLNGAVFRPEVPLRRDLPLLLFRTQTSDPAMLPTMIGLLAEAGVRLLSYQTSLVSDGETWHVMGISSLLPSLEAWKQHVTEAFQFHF

[2] = molecular target: T2, D-3-phosphoglycerate dehydrogenase (Homo sapiens, UniProt O43175)
T2 sequence (O43175 whole entry): T1 sequence (whole entry)

[3] = Half life in rat liver microsomes at 1 uM at 37 degC in presence of NADPH regeneration system incubated for 15 mins by LC-MS/MS analysis; format: ADME, microsome
[4] = Aqueous solubility of the compound; format: physicochemical

Row | Compound | inhibition [1] [%] | IC50 [2] [µM] | Imax [1] [%] | t1/2 [3] [min] | solubility [4] [µM]
1 | Cc1cc(C)nc(NC(=S)N2CCN(Cc3ccc(C(F)(F)F)cc3)C(CO)C2)c1 (stereo not drawn) | 89 | 5.8 | – | – | –
2 | Cc1cc(C)nc(NC(=S)NCCN(C)Cc2ccc(C(F)(F)F)cc2)c1 | 66 | 21 | – | – | –
3 | Cc1cc(C)nc(NC(=S)N2CCN(Cc3ccccc3C(F)(F)F)CC2)c1 | 92 | 6.3 | – | – | –
4 | Cc1cc(C)nc(NC(=S)N2CCN(Cc3ccc(Cl)cc3)CC2)c1 | 97 | 15 | – | – | –
5 | Cc1cc(C)nc(NC(=S)N2CC3CN(Cc4ccc(C(F)(F)F)cc4)CC3C2)c1 (stereo not drawn) | 93 | 16 | – | – | –
6 | Cc1ccnc(C(=S)N2CCN(c3cccc(C(F)(F)F)c3)CC2)c1 | – | – | 9 | – | –
7 | Cc1cc(NC(=S)N2CCN(c3cccc(C(F)(F)F)c3)CC2)nc2ccccc12 | 119 | 21 | – | – | –
8 | Cc1cc(C)nc(NC(=S)N(C)CCN(C)Cc2ccc(C(F)(F)F)cc2)c1 | 84 | 7.3 | – | – | –
9 | Cc1cc(C)nc(NC(=S)N2CCN(c3cccc(C(F)(F)F)c3)CC2)c1 | 92 | 6.3 | – | > 30 | –
10 | Cc1cc(C)nc(NC(=S)N2CCN(Cc3ccncc3)CC2)c1 | 67 | 59 | – | – | –
11 | Cc1cc(C)nc(NC(=S)N2CCN(Cc3cccc(F)c3)CC2)c1 | 88 | 39 | – | – | –
12 | COc1cccc(N2CCN(C(=S)Nc3cc(C)cc(C)n3)CC2)c1 | 101 | 14 | – | – | –
13 | Cc1cc(C)nc(NC(=S)NCCNCc2ccc(C(F)(F)F)cc2)c1 | 41 | 9.7 | – | – | –
14 | Cc1cc(C)nc(NC(=S)N2CCN(c3cccnc3)CC2)c1 | 68 | 50 | – | – | –
15 | FC(F)(F)c1cccc(N2CCN(C(=S)Nc3ccncc3)CC2)c1 | 55 | 14 | – | – | –
16 | Cc1cc(C)nc(NC(=S)N2CCN(c3ccncc3)CC2)c1 | – | – | 33 | – | > 48
17 | Cc1cc(C)nc(NC(=S)N2CCC(NC(=O)c3ccc(C(F)(F)F)cc3)CC2)c1 | 90 | 10 | – | – | –
18 | Cc1ccnc(NC(=N)N2CCN(c3cccc(C(F)(F)F)c3)CC2)c1 | – | – | 2 | – | –
19 | Cc1cc(C)nc(NC(=S)N2CCN(c3ccccc3C(F)(F)F)CC2)c1 | 101 | 8.7 | – | – | –

Row | Compound | inhibition [1] [%] | IC50 [2] [µM] | Imax [1] [%] | t1/2 [3] [min] | solubility [4] [µM]
20 | Cc1cc(C)nc(NC(=S)N2CCN(Cc3ccc(C(F)(F)F)cc3)[C@H](C)C2)c1 | 94 | 12 | – | – | –
21 | Cc1cc(C)nc(NC(=S)N2CCN(Cc3ccccc3C)CC2)c1 | 85 | 9.2 | – | – | –
22 | COc1ccccc1CN1CCN(C(=S)Nc2cc(C)cc(C)n2)CC1 | – | – | 21 | – | –
23 | Cc1cc(C)nc(NC(=S)N2CCN(CCc3ccc(C(F)(F)F)cc3)CC2)c1 | 87 | 23 | – | – | –
24 | Cc1cc(C)nc(NC(=S)N2CCN(Cc3ccc(C(F)(F)F)cc3)C(c3ccccc3)C2)c1 (stereo not drawn) | 111 | 31 | – | – | –
25 | Cc1cc(C)nc(NC(=S)N2CCN(Cc3ccc(C(F)(F)F)cc3)[C@@H](C)C2)c1 | 86 | 9.9 | – | – | –
26 | FC(F)(F)c1cccc(N2CCN(C(=S)Nc3ccc4ccccc4n3)CC2)c1 | 90 | 10 | – | – | –
27 | COc1ccc(N2CCN(C(=S)Nc3cc(C)cc(C)n3)CC2)cc1 | 99 | 16 | – | – | –
28 | Cc1cc(C)nc(NC(=S)N2CCC(Nc3cccc(C(F)(F)F)c3)CC2)c1 | 90 | 6.5 | – | – | –
29 | Cc1cc(C)nc(NC(=S)N2CCN(Cc3ccc(C(F)(F)F)cc3)C(C(=O)O)C2)c1 (stereo not drawn) | 93 | 33 | – | – | –
30 | COC(=O)c1ccnc(NC(=S)N2CCN(c3cccc(C(F)(F)F)c3)CC2)c1 | 73 | 13 | – | – | –
31 | Cc1cc(C)nc(NC(=S)N2CCN(c3ccccn3)CC2)c1 | 73 | 37 | – | – | –
32 | Cc1cc(C)nc(NC(=S)N2CCCN(Cc3ccc(C(F)(F)F)cc3)CC2)c1 | 82 | 7.3 | – | – | –
33 | Cc1cc(C)nc(NC(=S)N2CCN(Cc3ccc(OC(F)(F)F)cc3)CC2)c1 | 96 | 11 | – | – | –
34 | Cc1ccnc(NC(=S)N2CCN(c3cccc(C(F)(F)F)c3)CC2)n1 | 111 | 37 | – | – | –
35 | Cc1cc(C)nc(NC(=S)N2CCC(NCc3ccc(C(F)(F)F)cc3)CC2)c1 | 93 | 15 | – | – | –
36 | FC(F)(F)c1cccc(N2CCN(C(=S)Nc3ccccn3)CC2)c1 | 93 | 6.8 | – | 16 | –
37 | Cc1cc(C)nc(NC(=S)N2CCN(C(=O)c3ccc(C(F)(F)F)cc3)CC2)c1 | 85 | 19 | – | – | –
